In assay [1] the test system is DIGSA. Put plainly: Post-emergence action against DIGSA, 1.28 kg/ha. The class given is in vivo, Digitaria sanguinalis. To be noted: dosage 1280 g/ha, visual rating about 3 weeks after treatment vs untreated controls. The gist of the method: (§1)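 Percent activity was scored visually ~3 wk post-spray relative to untreated plants. Treatment was post-emergence at the one-leaf stage using WP/EC in water with 0.5% additive (600 L/ha).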

For assay [2], the system named is VIOTR. The assay can be described thus: Post-emergence action at 320 g/ha against VIOTR. The class given is in vivo, Viola tricolor. As to conditions: visual rating about 3 weeks after treatment vs untreated controls. The gist of the method:
(§2)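 Herbicidal effect is scored by eye about 3 weeks after a foliar spray and expressed as percent activity, with untreated plants as 0% and dead plants as 100%. Treatment is applied at the one-leaf stage of greenhouse-grown, soil-sown plants, at a water rate of 600 l/ha containing 0.5% additive.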

In assay [3] the test system is ALOMY. Put plainly: Post-emergence action against ALOMY, 1.28 kg/ha. It counts as in vivo, Alopecurus myosuroides. As to conditions: dosage 1280 g/ha, visual rating about 3 weeks after treatment vs untreated controls. The gist of the method: as §1
The subject of assay [4] is VERPE. Put plainly: Post-emergence action against VERPE, 1.28 kg/ha. It counts as in vivo, Veronica persica. As to conditions: dosage 1280 g/ha, visual rating about 3 weeks after treatment vs untreated controls (100% = plants died). The gist of the method:
as §1

The subject of assay [5] is AMARE. Put plainly: Post-emergence action against AMARE, 1.28 kg/ha. The class given is in vivo, Amaranthus retroflexus. As to conditions: dosage 1280 g/ha, visual rating about 3 weeks after treatment vs untreated controls (100% = plants died). The gist of the method: as §1
For assay [6], the system named is AVEFA. Put plainly: Post-emergence action at 320 g/ha against AVEFA. It counts as in vivo. As to conditions: visual rating about 3 weeks after treatment vs untreated controls. The gist of the method:
as §2

In assay [7] the test system is LOLRI. Put plainly: Pre-emergence action against LOLRI, 1280 g/ha. The class given is in vivo, Lolium rigidum. To be noted: visual scoring after about 3 weeks vs untreated controls, 100% = plants have died, 0% = like control plants. The gist of the method:
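In greenhouse pots of sandy loam, sown weed seeds were covered with soil and treated pre-emergence with the compound in water (600 L/ha, 0.5% additive). Efficacy was assessed visually as percent of untreated control after about 3 weeks.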

Assay [8] concerns ECHCG. Put plainly: Post-emergence action at 320 g/ha against ECHCG. It counts as in vivo, Echinochloa crus-galli. To be noted: dosage 320 g/ha, visual rating about 3 weeks after treatment vs untreated controls (100% = plants died). The gist of the method: as §2
For assay [9], the system named is ECHGC. Put plainly: Pre-emergence action at 320 g/ha against ECHGC. The class given is in vivo, Echinochloa crus-galli. As to conditions: visual scoring after about 3 weeks vs untreated controls. The gist of the method:
(§3)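 Effect rated visually (% vs untreated control) about 3 weeks after pre-emergence spraying of WP/EC formulation onto soil; spray carried 0.5% additive at 600 l/ha water.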

In assay [10] the test system is DIGSA. The assay can be described thus: Post-emergence action at 320 g/ha against DIGSA. It counts as in vivo, Digitaria sanguinalis. To be noted: dosage 320 g/ha, visual rating about 3 weeks after treatment vs untreated controls (100% = plants died). The gist of the method:
as §2

Assay [11] deals with AVEFA. Put plainly: Pre-emergence action at 320 g/ha against AVEFA. It counts as in vivo. To be noted: visual scoring after about 3 weeks vs untreated controls. The gist of the method: as §3
Assay [12] concerns VIOTR. The assay can be described thus: Pre-emergence action at 320 g/ha against VIOTR. The class given is in vivo, Viola tricolor. As to conditions: dosage 320 g/ha. The gist of the method:
as §3

The test system of assay [13] is LOLRI. The assay can be described thus: Post-emergence action against LOLRI, 1.28 kg/ha. It counts as in vivo, Lolium rigidum. As to conditions: dosage 1280 g/ha, visual rating about 3 weeks after treatment vs untreated controls. The gist of the method:
as §1

Assay [14] concerns SETVI. Put plainly: Post-emergence action against SETVI, 1.28 kg/ha. It counts as in vivo, Setaria viridis. As to conditions: dosage 1280 g/ha, visual rating about 3 weeks after treatment vs untreated controls. The gist of the method: as §1
The subject of assay [15] is LOLRI. Put plainly: Pre-emergence action at 320 g/ha against LOLRI. It counts as in vivo, Lolium rigidum. As to conditions: visual scoring after about 3 weeks vs untreated controls. The gist of the method:
as §3

The test system of assay [16] is VERPE. The assay can be described thus: Pre-emergence action at 320 g/ha against VERPE. The class given is in vivo, Veronica persica. As to conditions: visual scoring after about 3 weeks vs untreated controls. The gist of the method: as §3

The structures appear in SMILES notation.

For `COC(=O)COc1nn(-c2ccccc2F)c(-c2ccc(F)nc2)c1C(F)(F)F` [VII-031], the “Post-emergence action against DIGSA” value in assay [1] came out at 100%. The “Post-emergence action against VIOTR in %” value in assay [2] is reported as 90%. Also, the “Post-emergence action against ALOMY” value in [3] was determined as 100%. Moreover, the “Post-emergence action against VERPE” value in assay [4] turned out to be 100%. Further, the “Post-emergence action against AMARE” value in assay [5] is given as 90%. Besides, in [6], the “Post-emergence action against AVEFA in %” value is given as 90%. In addition, the “Pre-emergence action against LOLRI” value in [7] amounted to 100%. In addition, in [8], the “Post-emergence action at 320 g/ha against ECHCG in %” value was 90%. Moreover, the “Pre-emergence action against ECHGC in %” value in [9] is 90%. In assay [10], the “Post-emergence action at 320 g/ha against DIGSA in %” value is 100%. Further, the “Pre-emergence action against AVEFA in %” value in assay [11] is reported as 100%. Besides, the “Pre-emergence action against VIOTR in %” value in [12] is 100%. For the same molecule, the “Post-emergence action against LOLRI” value in [13] was found to be 100%. Also, the “Post-emergence action against SETVI” value in [14] is given as 90%. For the same molecule, the “Pre-emergence action against LOLRI in %” value in assay [15] amounted to 100%. The “Pre-emergence action against VERPE in %” value in assay [16] was 100%.
With `COC(=O)COc1nn(-c2ccccc2F)c(-c2cncc(F)c2)c1Br` [VII-035], in assay [1], the “Post-emergence action against DIGSA” value is listed as 100%. Further, the “Post-emergence action against VIOTR in %” value in assay [2] was 90%. Further, the “Post-emergence action against ALOMY” value in assay [3] came out at 100%. In [4], the “Post-emergence action against VERPE” value was determined as 100%. For the same molecule, the “Post-emergence action against AMARE” value in [5] amounted to 90%. The “Post-emergence action against AVEFA in %” value in assay [6] is listed as 90%. For the same molecule, in assay [7], the “Pre-emergence action against LOLRI” value stood at 100%. Further, in assay [8], the “Post-emergence action at 320 g/ha against ECHCG in %” value turned out to be 90%. Besides, the “Pre-emergence action against ECHGC in %” value in assay [9] is 90%. Moreover, the “Post-emergence action at 320 g/ha against DIGSA in %” value in [10] is 100%. In addition, the “Pre-emergence action against AVEFA in %” value in [11] came out at 90%. Further, in assay [12], the “Pre-emergence action against VIOTR in %” value was determined as 100%. Also, the “Post-emergence action against LOLRI” value in [13] came to 100%. Also, the “Post-emergence action against SETVI” value in assay [14] is listed as 90%. Moreover, the “Pre-emergence action against LOLRI in %” value in [15] came out at 90%. In addition, the “Pre-emergence action against VERPE in %” value in [16] was found to be 100%.
On to `O=C(O)COc1nn(-c2ccccc2F)c(-c2ccc(F)nc2)c1I` [VII-037], for which the “Post-emergence action against DIGSA” value in [1] is reported as 90%. Also, in assay [2], the “Post-emergence action against VIOTR in %” value was 80%. Moreover, the “Post-emergence action against ALOMY” value in assay [3] worked out at 100%. Also, the “Post-emergence action against VERPE” value in [4] was found to be 100%. For the same molecule, in [5], the “Post-emergence action against AMARE” value was determined as 90%. Also, in [6], the “Post-emergence action against AVEFA in %” value is listed as 80%. Also, the “Pre-emergence action against LOLRI” value in assay [7] came out at 100%. In addition, the “Post-emergence action at 320 g/ha against ECHCG in %” value in assay [8] came to 80%. Further, the “Pre-emergence action against ECHGC in %” value in assay [9] stood at 80%. Besides, in assay [10], the “Post-emergence action at 320 g/ha against DIGSA in %” value was determined as 90%. Further, the “Pre-emergence action against AVEFA in %” value in assay [11] came to 90%. For the same molecule, in assay [12], the “Pre-emergence action against VIOTR in %” value is listed as 100%. Also, the “Post-emergence action against LOLRI” value in [13] is 90%. Besides, the “Post-emergence action against SETVI” value in assay [14] worked out at 90%. Moreover, the “Pre-emergence action against LOLRI in %” value in assay [15] turned out to be 100%. The “Pre-emergence action against VERPE in %” value in assay [16] amounted to 100%.
In the case of `COC(=O)CCOC(=O)COc1nn(-c2ccccc2F)c(-c2ccc(F)nc2)c1Br` [VII-111], the “Post-emergence action against DIGSA” value in assay [1] is 100%. Besides, the “Post-emergence action against VIOTR in %” value in [2] stood at 90%. For the same molecule, the “Post-emergence action against ALOMY” value in [3] was 100%. The “Post-emergence action against VERPE” value in assay [4] was determined as 90%. The “Post-emergence action against AMARE” value in assay [5] is 90%. In [6], the “Post-emergence action against AVEFA in %” value is reported as 90%. Besides, in [7], the “Pre-emergence action against LOLRI” value turned out to be 100%. The “Post-emergence action at 320 g/ha against ECHCG in %” value in [8] came to 90%. Also, the “Pre-emergence action against ECHGC in %” value in assay [9] was 100%. The “Post-emergence action at 320 g/ha against DIGSA in %” value in [10] was found to be 90%. Further, the “Pre-emergence action against AVEFA in %” value in assay [11] amounted to 90%. In addition, the “Pre-emergence action against VIOTR in %” value in assay [12] is given as 100%. For the same molecule, the “Post-emergence action against LOLRI” value in [13] turned out to be 90%. Further, in assay [14], the “Post-emergence action against SETVI” value came to 100%. Besides, the “Pre-emergence action against LOLRI in %” value in [15] stood at 100%. Also, the “Pre-emergence action against VERPE in %” value in assay [16] worked out at 100%.

Source of the values: patent publication US12180187B2, “1-phenyl-5-azinylpyrazolyl-3-oxyalkyl acids and their use for controlling unwanted plant growth” (BAYER AKTIENGESELLSCHAFT, priority 2019, dated 2024).
